Experimental data published in patent US7361633B2, “Screening method and anti-tumor drug candidate obtained therefrom” (Ardana Bioscience Limited, priority 2002, dated 2008).
Entries after “also recorded” stand apart in the source; their conditions may differ. Square brackets hold non-standard residues; d marks the D form. Peptide text beside a SMILES is read from it. dPhe(4-Cl) = N[C@H](Cc1ccc(Cl)cc1)C(=O)O; d2Nal = N[C@H](Cc1ccc2ccccc2c1)C(=O)O; dCit = NC(=O)NCCC[C@@H](N)C(=O)O; d3Pal = N[C@H](Cc1cccnc1)C(=O)O; pGlu = O=C1CC[C@@H](C(=O)O)N1

Assays:
[1] = target: T1, marmoset Type II GnRH receptor (Callithrix jacchus, UniProt Q95MG6); test: Inositol phosphate accumulation in αT4-II cells; assay type: cell-based; conditions: GnRH II 10 nM
T1 construct: expressed in transfected cells
T1 sequence (Q95MG6 1-380): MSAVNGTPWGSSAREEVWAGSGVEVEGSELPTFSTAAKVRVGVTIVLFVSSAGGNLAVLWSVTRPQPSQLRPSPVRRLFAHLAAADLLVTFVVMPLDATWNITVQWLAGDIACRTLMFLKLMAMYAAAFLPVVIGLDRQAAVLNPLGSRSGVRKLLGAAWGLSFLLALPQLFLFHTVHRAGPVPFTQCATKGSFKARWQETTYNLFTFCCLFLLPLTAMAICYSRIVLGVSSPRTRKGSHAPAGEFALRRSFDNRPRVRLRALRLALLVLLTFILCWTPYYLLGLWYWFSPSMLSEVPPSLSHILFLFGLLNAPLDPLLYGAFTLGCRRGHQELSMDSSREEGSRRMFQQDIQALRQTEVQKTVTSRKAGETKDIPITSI
Method: The histograms in panels a and b represent inositol phosphate accumulation data from HEK293 cells stably expressing the Type I GnRH receptor only (SCL60). […] In panels c and d, the liberated inositol phosphates generated were measured in the proto-gonadotrope cells (αT4) stably expressing the marmoset Type II GnRH receptor (designated αT4-II).
The ability of the four major agents under study at activating ectopically expressed Type I or Type II GnRHR were tested (FIG. 12). The classical signal transduction cascade activated by GnRHR stimulation is the Gαq-PLC-β cascade. Both Type I and II receptor can stimulate the Gαq-PLC type-G-protein and activate PLC-β which cleaves phosphatidylinositol bisphosphate (PIP2) into inositol trisphosphate (IP3), other lower inositol phosphates (IPn) and diacylglycerol (DAG). The major function of IP3 is to elevate intracellular Ca^2+ while DAG causes the activation of specific PKC (protein kinase C) isoforms.
Panels a and b of FIG. 12 depict the generation of free cytoplasmic ^3H-myo-inositols on the plasma membranes of HEK293 cells expressing the Type I GnRHR and of αT4 gonadotropes expressing the marmoset Type II GnRHR. Prior to agonist stimulation the respective cells were incubated in inositol-free growth media supplemented with 1 μCi/ml ^3H-myoinositol for 48 h. G protein coupled receptor (GPCR)-induced activation of PLC-β results in the cleavage of PIP2 (incorporating tritium ^3H) into free lower inositol phosphates (IPns).

[2] = tested on: ERK1/2; test: ERK1/2 phosphorylation immunoblot in JEG-3 cells; assay type: cell-based, human; conditions: 100 nM, 10 minutes
[3] = tested on: ERK1/2; test: ERK1/2 phosphorylation immunoblot in BPH-1 cells; assay type: cell-based, human; conditions: FIG. 5 panel c
Excerpt: The panel depicts a representative anti-phospho-ERK1/2 w-c lysate immunoblot of stimulated BPH-1 cell extracts. […] Each bar of the histogram represents the mean±s.e. mean of three to four experimental replicates. […] Panel c) depicts the extent of ERK1/2 activation in BPH-1 cells induced by stimulation with GnRH I, II, Ant 135-25 and Ant 135-18. […] Each bar of the histogram represents the mean± s.e. mean of three to four experimental replicates.

[4] = tested on: human JEG-3 choriocarcinoma cells; test: Anti-proliferative effect on JEG-3 cells, viable cell count after 5 days; assay type: cell-based; conditions: 5 days continuous treatment, trypan blue exclusion
Method: (§1) Low cell density JEG-3 cell subcultures were treated for 5 days continuously with the indicated doses of GnRH I (a), GnRH II (b), antagonist 135-18 (c) or antagonist 135-25 (d) added directly to Dulbecco's modified Eagles medium supplemented with 10% FCS, glutamine and penicillin/streptomycin. Ligands were replenished every 24 h. At the end of the stimulation period cells were removed from the growth plates with trypsin and mixed with trypan blue dye (enters non-viable cells). Only viable cells were therefore counted using a haemocytometer in quadruplicate for each ligand dose. The bars in each histogram represent the mean±s.e. mean of n=4 experiments.
(§2) Each cell type was plated at an initial minimal confluency (10-20%) to allow for 5 days of normal continual cell growth that would not result in 100% cell confluency by day 5. Each ligand was incubated, in triplicate for every experimental concentration, with the cell monolayers for five days with replacement of the ligand every 12 h. At the end of the stimulation period the number of viable cells was estimated by their capacity to prevent uptake of Trypan Blue stain.

[5] = tested on: PLC-β; test: Inositol phosphate accumulation in BPH-1 cells; assay type: cell-based, human
Method: BPH-1 cells were pre-incubated with ^3H-myoinositol (1 μCi/ml) for 48 h prior to ligand stimulation (60 minutes). Ligand stimulated inositol phosphate production was measured in the presence of 10 mM LiCl. […] IP accumulation can be used as a read out/marker for Gαq activation since the activation of PLCβ is PTX-resistant.

[6] = tested on: HEK293 cells stably expressing the Type I GnRHR (SCL60); test: Anti-proliferative effect on SCL60 cells, viable cell count after 5 days; assay type: cell-based, human; conditions: 5 days continuous treatment, trypan blue exclusion
Method: An identical methodology of measuring cell growth was employed as in FIG. 1.
as §2
We further investigated the nature of the ligand-receptor specificity of the anti-proliferative effects of GnRH receptor systems by studying our ligand panel effects upon a model cell background, i.e. SCL60 HEK293 cells stably expressing the rat Type I GnRHR. […] We attribute this greater effect of the GnRHR ligands upon the SCL60 cells to the much greater level of receptor expression in the SCL60 cells.

[7] = tested on: PTX-sensitive/Gαi-dependent MAPK isoform activation; test: PTX-sensitive/Gαi-dependent MAPK isoform activation (data not shown); assay type: cell-based
[8] = tested on: androgen-resistant tumor cells; conditions: compared with androgen-dependent prostate cancers; Jungwirth et al; cited from earlier work
[9] = tested on: human benign prostate hyperplastic (BPH-1) cells; test: Anti-proliferative effect on BPH-1 cells, viable cell count after 5 days; assay type: cell-based; conditions: 5 days continuous treatment, trypan blue exclusion
Method: as §1, with “density BPH-1” for “density JEG-3”, “(b), Ant” for “(b), antagonist”, “or Ant” for “or antagonist”, “to RPMI 1640” for “to Dulbecco's modified Eagles”, “removed form” for “removed from”, “plates by” for “plates with”
as §2
Employing an identical growth and stimulation methodology to that described in the previous paragraph and in FIG. 1 we exposed the hyperplastic cell line, BPH-1, to the same panel of GnRH ligands and antagonistic analogues (FIG. 2). Reminiscent of FIG. 1 both endogenous GnRH agonists exert a similar mode of action with respect to their dose-dependent inhibition of BPH-1 cell growth over the five day stimulation period.

Compound | agonistic activity: liberated inositol phosphates at marmoset Type II GnRH receptor [1] | extent of ERK1/2 phosphorylation (activation) [2] | extent of ERK1/2 activation [3] | anti-proliferative effect (viable cell number) [4] | inositol phosphate accumulation ([5]; 60 minutes, 10 mM LiCl, doses up to 50 μM) | anti-proliferative effect (viable cell number) [6] | potency at stimulating PTX-sensitive/Gαi-dependent MAPK isoform activation [7] | doses required to attenuate growth of androgen-resistant tumor cells [8] | anti-proliferative effect (viable cell number) [9] | effect of pertussis toxin pre-incubation on induced inositol phosphate accumulation ([5]; PTX 200 ng/ml 16 h, GnRH I 50 μM)
GnRH II: A second form of GnRH, identified in the mid-brain of many vertebrates ([pGlu]HWSHGWYPG-NH2; ends and bridges not checked; UniProt O43555 24-33, looked up) | yields an increase in free tritiated inositol phosphates; also recorded: results in a similar action to GnRH I upon the SCL60 cells | less effective | A similar pattern to JEG-3 of ligand activation | potent and dose-dependent anti-proliferative effect; also recorded: clear dose-response relationships for the inhibition of cellular growth | poor activity; also recorded: small capacity to induce inositol phosphate accumulation | greater anti-proliferative efficacy; also recorded: less potent than GnRH I at arresting the SCL60 cell growth | – | – | – | –
CC(=O)N[C@H](Cc1ccc2ccccc2c1)C(=O)N[C@H](Cc1ccc(Cl)cc1)C(=O)N[C@H](Cc1cccnc1)C(=O)N[C@@H](CO)C(=O)N[C@@H](Cc1ccc(O)cc1)C(=O)N[C@H](CCCNC(N)=O)C(=O)N[C@@H](CC(C)C)C(=O)N[C@@H](CCCNC(=N)N)C(=O)N1CCC[C@H]1C(=O)N[C@H](C)C(N)=O [Cetrorelix] (Ac-[d2Nal][dPhe(4-Cl)][d3Pal]SY[dCit]LRP[dA]-NH2) | – | – | – | – | – | – | significantly less potent than Ant 135-25 | considerably higher doses | – | –
lysophosohatidic acid [LPA] | – | – | – | failed to significantly attenuate the cell growth | – | – | – | – | failed to significantly attenuate the cell growth | insensitive to PTX pre-incubation; also recorded: completely insensitive to the pertussis toxin
